The test system of assay [1] is terminal pathway (TP) of complement. Kind of assay: serum-based terminal pathway (TP) hemolytic assay (2% NHS, C5b,6, chicken erythrocytes). It is filed as cell-based, human. The conditions noted are these: 100 μM (based on the monomeric form). The text has this:
Erythrocyte lysis assays were used to measure complement-mediated hemolytic activity. Erythrocyte (RBC) lysis assays as previously described^18,37 were used to measure complement activity. For alternative pathway assays and for total hemolytic activity assays, unsensitized rabbit erythrocytes were used. Chicken erythrocytes were used for the terminal pathway assays.
Erythrocytes were washed three times in GVB with the reaction buffers as indicated, and counted using the Advia 120 Hematology System from Siemens (Siemens, Erlangen, Germany). Reactions in 300 μL were allowed to proceed for 30 min at 37° C., after which unlysed cells were pelleted by centrifugation at 600×g. Erythrocyte lysis, reflected by the released hemoglobin in the supernatant, was quantified by measuring the absorbance at 405 nm using the Mithras LB 940 microplate reader from Berthold Technologies (Bad Wildbad, Germany). Percent lysis was determined relative to the control of 100% lysis with H2O. For total hemolytic and terminal pathway (TP) assays, the concentrations of NHS and C5b,6 to initiate complement activation were established from pilot studies to obtain ˜70-80% erythrocyte lysis at 30 min.
For serum-based terminal pathway (TP) hemolytic assays, components were diluted in GVB containing 10 mM EDTA (GVB-E), the latter added to prevent upstream complement activation and generation of endogenous C5b,6. 2% NHS was used as the source of C7, C8, and C9, and hemolysis of chicken erythrocytes (cRBC) (3.3×10^8 cells/mL) was initiated by addition of exogenous purified C5b,6, the concentration of which was determined from pilot studies to yield ˜70-80% lysis at 30 min. No C5b,6 activity was detected in the NHS prior to initiating the reaction. For some experiments, instead of NHS, purified terminal pathway complement components were used in the TP assays. In these assays, in a final volume of 300 uL GVB, lysis was achieved by the sequential addition of the following components: cRBC (3.3×10^8 cells/mL), C5b,6 (20 μM), C7 (15 nM), C8 (10 nM), and C9 (25 nM). The unlysed cell pellet was removed by centrifugation and lysis was measured immediately after the 30-minute reaction. A standard curve for the terminal pathway assay using serum as the source of complement (FIG. 2) was generated using a fixed serum concentration at 2%, and increasing concentrations of purified C5b,6 dose-dependently lysed chicken erythrocytes after 30 min at 37° C. […] of purified C5b,6 was therefore used to fix baseline lysis at ˜80% to allow assessment of the inhibitory effects of polyphosphate in serum.
TP activity in NHS(2%), measured by lysis of cRBC, was initiated by adding a limiting amount of exogenous purified C5b,6 (250 pM) to achieve 70-80% lysis after 30 min. A molar excess of EDTA was used to prevent upstream activation of complement and generation of endogenous C5b,6. In the absence of C5b,6, there was no detectable complement-mediated cRBC lysis. P1 at concentrations ranging from 0.1 to 1000 μM, had no effect on complement-mediated hemolysis in NHS via the TP (FIG. 5A). By contrast, polyphosphate>1000 inhibited the TP in serum in a concentration-dependent manner, with an IC50 of ˜10 μM polyphosphate>1000 (dotted lines) (calculated based on monomeric phosphate).

The target in assay [2] is T1, C1-esterase inhibitor (C1-inh) (Homo sapiens, UniProt P05155).
T1 sequence (P05155 23-500): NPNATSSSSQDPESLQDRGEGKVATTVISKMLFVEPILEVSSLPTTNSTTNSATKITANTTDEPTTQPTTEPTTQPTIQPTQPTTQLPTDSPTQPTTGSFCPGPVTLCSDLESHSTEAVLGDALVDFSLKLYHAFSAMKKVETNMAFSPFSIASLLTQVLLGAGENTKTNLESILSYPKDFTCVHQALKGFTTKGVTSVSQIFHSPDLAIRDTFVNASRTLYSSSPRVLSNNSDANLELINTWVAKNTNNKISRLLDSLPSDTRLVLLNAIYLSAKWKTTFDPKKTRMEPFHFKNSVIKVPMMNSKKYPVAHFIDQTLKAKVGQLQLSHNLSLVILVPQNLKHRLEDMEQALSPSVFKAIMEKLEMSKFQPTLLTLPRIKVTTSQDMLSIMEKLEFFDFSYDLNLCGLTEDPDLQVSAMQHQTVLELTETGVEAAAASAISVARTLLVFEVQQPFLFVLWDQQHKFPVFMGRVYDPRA
The assay can be described thus: C1s-mediated cleavage of C4 in the presence of C1-inh (SDS-PAGE). Type of assay: biochemical. The conditions noted are these: 10-500 μM, 2.5 nM C1-inh. As for the experimental part: We tested whether polyP affects the inhibitory properties of C1-inh on C1s-mediated cleavage and activation of complement factor C4 and C2. SDS-PAGE followed by coomassie staining of gels was used to monitor cleavage of C4 by C1s in the presence/absence of C1-inh and/or polyP in a purified system.
2.5 nM C1s (reaction 1) or 2.5 nM C1-inh (reaction 2), and 300 μM polyP were incubated in 20 mM Hepes, 0.15 M NaCl, pH 7.5, 0.01% Tween buffer for 90 minutes at 37° C. 2.5 nM C1-inh (reaction 1) or 0.5 nM C1s (reaction 2) was added and incubated for 30 minutes at 37° C. 1.5 μM C4 was added and incubated for 5 minutes at 37° C. The reactions were quenched with 5× loading buffer and β-ME. Samples were taken and run on an SDS-PAGE 8% gel (FIG. 15B).
Briefly, 2.5 nM C1s with 5-300 μM of polyP130 (reaction 1; FIG. 16A) or polyP1000 (reaction 2; FIG. 16B) were incubated in 20 mM Hepes, 0.15 M NaCl, pH 7.5, 0.01% Tween buffer for 90 minutes at 37° C. 2.5 nM C1s was added and incubated for 30 minutes at 37° C. 1.5 μM C4 was added and incubated for 5 minutes at 37° C. The reactions were quenched with 5× loading buffer and β-ME.
Briefly, 2.5 nM C1s with 10-500 μM of polyP14, polyP60, polyP130, polyP1000 were incubated in 20 mM Hepes, 0.15 M NaCl, pH 7.5, 0.01% Tween buffer for 90 minutes at 37° C. 2.5 nM C1s was added and incubated for 30 minutes at 37° C. […]

Consider two molecules from patent publication US9408871B2, “Methods for inhibiting complement activation and uses thereof” (THE UNIVERSITY OF BRITISH COLUMBIA, priority 2013, dated 2016).

Regarding `O=P([O-])([O-])OP(=O)([O-])[O-].[Na+].[Na+].[Na+].[Na+]` [P2, diphosphate (Na4P2O7)], in assay [1], the “effect on TP hemolytic activity at equivalent concentration” value was “had no effect”. In addition, the “effect of polyP size on C1-inh (C4 cleavage by C1s)” value in assay [2] is on record as “had no effect on C1-inh”.

Turning to `O=P([O-])([O-])OP(=O)([O-])OP(=O)([O-])[O-].[Na+].[Na+].[Na+].[Na+].[Na+]` [P3, triphosphate (Na5P3O10)], in assay [1], the “effect on TP hemolytic activity at equivalent concentration” value is recorded as “had no effect”. For the same molecule, the “effect of polyP size on C1-inh (C4 cleavage by C1s)” value in assay [2] is “had no effect on C1-inh”.
